Tests used:
PIM3 = PIM3 (Homo sapiens, UniProt Q86V86); test: KINOMEscan Kd (DiscoverX); type: binding
[1] = test system: S6 phosphorylation (Ser235/236) in KG-1 cells; test: S6 phosphorylation, flow cytometry; type: cell-based; conditions: Homo sapiens; KG-1, 4 hours
Description: (§1) For biomarker experiments, MV-4-11, MOLM-13 and KG-1 cells were seeded at 1 × 10^6 in 3 ml of medium, while MOLM-16 cells were seeded at 1 × 10^6 in 4 ml of medium and left for ~ 18 hours (37°C, 5% CO2). […] Final concertation of DMSO was 0.1%. After 4h of incubation cells were harvested, centrifuged and washed with ice-cold PBS. Cells were fixed with 4% paraformaldehyde buffered with PBS and permeabilized with 90% methanol. Cells were incubated with primary antibody (S6 phopspho-Ser235/236, Cell Signaling, Cat. No: 4856) diluted 1:200 in 0.5% BSA/PBS. […] Cells were analyzed on Flow Cytometer BD LSR II with an excitation wavelength of 488 nm and peak emission 590 nm.

[2] = test system: S6 phosphorylation (Ser235/236) in MOLM-13 cells; test: S6 phosphorylation, flow cytometry; type: cell-based; conditions: Homo sapiens; MOLM-13, 4 hours
Description: as §1

[3] = test system: S6 phosphorylation (Ser235/236) in MOLM-16 cells; test: S6 phosphorylation, flow cytometry; type: cell-based; conditions: MOLM16; MOLM-16, 4 hours
Description: as §1

[4] = test system: S6 phosphorylation (Ser235/236) in KG-1 cells; test: S6 phosphorylation, Western blot; type: cell-based; conditions: Homo sapiens; KG-1, 4 hours; read-out: IC50 S6 phosphorylation (Ser235/236), Western blotting
Description: (§2) Cells were collected, washed twice with cold PBS, and lysed in RIPA buffer and kept on ice for 10 min. Tumor specimens from xenograft studies were homogenized in RIPA buffer using OMNI TH Tissue Homogenizer and kept on ice for 30 min. After incubation, cell and tumor lysates were centrifuged at 13,000×g at 4°C for 10 min and the supernatants were stored at −80°C until use. Protein concentration was measured using the Bradford method. For SDS-PAGE, 50 μg of protein in the Laemmli sample buffer was loaded onto 10% polyacrylamide gels and electrophoresed. Thereafter, proteins were transferred onto polyvinylidene fluoride (PVDF) membranes (Millipore). After blocking with 5% non-fat dry milk/TBS-T or 2% BSA/TBS-T, membranes were incubated with specific primary antibodies (listed in Supplementary Table 2) at 4 °C overnight. After extensive washing in PBS-T, membranes were incubated for 60 min with appropriate secondary peroxidase-conjugated IgG. The immunoreactive proteins were detected using an enhanced chemiluminescence (ECL) substrate (GE Healthcare) and visualized with Hyperfilm-ECL (GE Healthcare Biosciences).

[5] = test system: S6 phosphorylation (Ser235/236) in MOLM-13 cells; test: S6 phosphorylation, Western blot; type: cell-based; conditions: Homo sapiens; MOLM-13, 4 hours; read-out: IC50 S6 phosphorylation (Ser235/236), Western blotting
Description: as §2

[6] = test system: S6 phosphorylation (Ser235/236) in MOLM-16 cells; test: S6 phosphorylation, Western blot; type: cell-based; conditions: MOLM16; MOLM-16, 4 hours; read-out: IC50 S6 phosphorylation (Ser235/236), Western blotting
Description: as §2

[7] = test system: S6 phosphorylation (Ser235/236) in MV-4-11 cells; test: S6 phosphorylation, Western blot; type: cell-based; conditions: Homo sapiens, MV4-11; MV-4-11, 4 hours; read-out: IC50 S6 phosphorylation (Ser235/236), Western blotting
Description: as §2

[8] = Pharmacokinetics after oral and intravenous administration; type: in vivo, dogs (Beagle); conditions: male, Beagle, plasma, Dog, Dose PO/IV 5/1 mg/kg
Description: therapeutic potential in acute myeloid leukemia
sheet for further calculations.
Three male Beagle dogs were administered

[9] = Metabolic stability, liver S9 fraction; type: in vitro ADME; conditions: Rat, 37 °C, read-out: Liver S9 fraction t1/2 (converted)
[10] = Metabolic stability, liver S9 fraction; type: in vitro ADME; conditions: Dog, 37 °C, read-out: Liver S9 fraction t1/2 (converted)
[11] = Metabolic stability, liver microsomes; type: in vitro ADME; conditions: Rat, 37 °C, read-out: Liver microsomes t1/2 (converted)
[12] = Metabolic stability, liver microsomes; type: in vitro ADME; conditions: Human, 37 °C, read-out: Liver microsomes t1/2 (converted)
MOLM-13 xenografts = test: MOLM-13 subcutaneous xenograft; type: in vivo; conditions: MOLM-13, SCID mice; AC220 10 mg/kg QD, other doses not given
From the text: All animals were handled in strict accordance with good animal practice as defined by the relevant national and local animal welfare bodies. SCID and SCID/beige C.B-17 mice were provided by Harlan Laboratories or Charles River Laboratories, and were maintained in pathogen free conditions. For the xenograft experiments, age-matched (9-11 weeks old) females were used. 5×10^6 of MV-4-11 or MOLM-16 cells were suspended in a mixture (1:1, v:v) of PBS with Matrigel (BD Biosciences,) and injected subcutaneously (sc), in a total volume of 100 μL, above the groin on the right hind limb. For MOLM-13 and KG-1 cells, a mixture (3:1, v:v) of PBS and Matrigel HC (BD Bioscience,) was used to inject 5 × 10^6 of cell per mouse subcutaneously (sc), in a total volume of 100 μL. When tumors reached 100-130 mm^3, mice were randomized into uniform groups (6-9 mice per group) and subsequently administered the compound. […] At the end of the experiment, mice were anesthetized with isofluran and blood samples for total cell counts and biochemistry were obtained by retro-orbital bleeding. […] 5×10^6 cells suspended in a mixture (3:1, v:v) of PBS and Matrigel were injected as described above. […] Tumor volume was monitored every second day and calculated using the formula: TV = (a^2×b)/2, where “a” is the short axis in millimeters, and “b” is the long axis in millimeters. Body weight was assessed every day.

KASUMI-6 = test: MTS viability assay, 72 h; conditions: 72 h
Description: (§3) 15-25 ×10^3 of MV-4-11, MOLM-13, MOLM-14, MOLM-16, KG-1, Eol-1, SKM-1, PL-21, GDM-1, SKNO-1, RS4;11, Kasumi-3 and Kasumi-6 cells were seeded in 150 μL of culture medium onto individual wells in a 96 well plates, in triplicates. On the same day, 50 μL of medium containing tested inhibitor was added to the wells. Each compound was tested at 8 concentrations, in triplicates. As a negative control, the medium containing 0.1% DMSO was used. […] Staurosporine was used at 10 μM as a positive control. One the day of drug addition, basal signal from untreated cells was measured from in triplicate to determine time zero (T0). […] GI50 and LC50 values were extrapolated from a variable (four-parameter) dose-response curve fitted in GraphPad Prism.

MOLM-6 = test: MTS viability assay, 72 h; conditions: 72 h
Description: as §3

PL-21 = test: MTS viability assay, 72 h; conditions: PL-21, 72 h
Description: as §3

CC(C)n1c(C2CCNCC2)nc2c([N+](=O)[O-])c(Br)c(Br)cc21 [SEL24-B489, 5,6-dibromo-4-nitro-2-(piperidin-4-yl)-1-(propan-2-yl)-1H-1,3-benzodiazole]
Kd (PIM3): 3 nM
IC50 [1]: 195 nM
IC50 [2]: 102 nM
IC50 [3]: 58 nM
IC50 [4]: 31 nM
IC50 [5]: 3 nM
IC50 [6]: 35 nM
IC50 [7]: 1 nM
Cmax ([8]; 5 mg/kg): 155 ng/mL
Tmax ([8]; 5 mg/kg): 1.75 h
bioavailability ([8]; 5 mg/kg, read-out: F (bioavailability)): 47%
AUC(0-t) [8]: 3080 ng·h/mL
half-life [8]: 17.6 h
half-life at 1 µM [9]: 4.3 h
half-life at 1 µM [10]: 6.3 h
half-life at 1 µM [11]: 21.8 h
half-life at 1 µM [12]: 21.1 h
TGI (MOLM-13 xenografts): ~ 50%
GI50 (KASUMI-6): 17 nM
GI50 (MOLM-6): 449 nM
CC50 (MOLM-6; read-out: LC50): 7200 nM
GI50 (PL-21): 1710 nM
